From patent publication US9795585B2, “Methods of using L-butylphthalide for the prevention and treatment of cerebral ischemia disease” (priority 2004, dated 2017)

Tests used:
[1] = test system: cerebral injury-induced cerebral ischemia in rats; assay: Neural symptoms induced by cerebral injury in rats; type: in vivo, male Wistar rats; conditions: 50 mg/kg oral 5 minutes after cerebral injury; scored after 24 hours; vs vehicle control
Method: Experimental Animals: male Wistar rats
Experimental Methods: Cerebral injury in rats was caused by allowing a cone-shaped metal object weighing 220 g to freely fall from a position of 30 cm height and to strike the skull cap behind the left coronal suture. dl-, d-, and l-NBP (50 mg/kg) and the vehicle (control group) were orally administered after 5 minutes, and the behavioral changes were scored after 24 hours.

[2] = test system: focal cerebral ischemia in rats; assay: Memory disorder induced by focal cerebral ischemia (shuttle box, artery ligation by method of Tamura); type: in vivo, male Wistar rats; conditions: 15 and 30 mg/kg oral 15 min after operation; observed after 24 hours; vs vehicle control
Method: Experimental Animal: The same as Example 1. Experimental Equipment: Shuttle box. Experimental Methods: • 1. Rats were trained to acquire learning and memory; • 2. Artery ligation: Artery ligation was conducted on rats according to the method of Tamura. After 24 hours, the experiment of learning as in step (1) was repeatedly conducted on rats. • 3. Grouping and administration: the rats were divided into 9 groups, which were normal group, pseudo-operation group, ischemia control group, and groups of dl-, d-, and l-NBP (15 and 30 mg/kg). The rats were orally administered at 15 min after the operation, and the changes of latency of active and passive avoidance response were observed after 24 hours.

[3] = test system: cerebral edema induced by cerebral artery ligation in rats; assay: Cerebral edema induced by ligation of right middle cerebral artery; type: in vivo, male Wistar rats; conditions: 40 and 80 mg/kg oral 15 minutes after ligation; sacrificed after 24 hours
Method: Experimental Animals: the same as Example 1. Experimental Equipments: Oxygen analyzer. Experimental Methods: Cerebral edema was induced by the ligation of right middle cerebral artery of rats. After 15 minutes, dl-, d-, and l-NBP (40 and 80 mg/kg) were orally administered. The rats were sacrificed after 24 hours. The forebrain was removed, and the cerebral hemispheres on the left and right side were weighed. Dry weight was obtained by baking for 24 hours under 100° C. The weight of water in the brain tissue was thus calculated by subtracting of dry weight from wet weight. Then, the tissues was nitrified for 4 hours, and pH was adjusted by using HCl. Next, the ion selective electrode was connected onto the oxygen analyzer, and the concentrations of Na^+ and K^+ in the brain tissue were measured.

[4] = test system: cerebral apoplexy in spontaneous hypertension rats; assay: Cerebral apoplexy in salt-loaded spontaneous hypertensive rats; type: in vivo; conditions: 25 and 50 mg/kg/d oral
Method: Experimental Animals: spontaneous hypertensive rats of 6 weeks old. Experimental Methods: Spontaneous hypertensive rats of 6 weeks old were divided into 8 groups with 10 rats per group. 0.8 to 0.9 g per day of common salt was administered starting from week 6. […] The scores of neurological deficit and the time of death were recorded.

[5] = test system: ischemic brain of decapitated mice; assay: Ischemic cerebral metabolism of energy induced by decapitation of mice; type: in vivo, KunMing mice; conditions: NBP 50 and 100 mg/kg oral, sodium Phenobarbital 225 mg/kg ip.; decapitated 30 minutes after administration; 15 seconds ischemia; vs control group
Method: Experimental Animals: KunMing mice.
Test drug: injectable L-butylphthalide was formulated into an emulsion with Tween-80.
Experimental Methods: KunMing mice of 10 to 22 g were divided into 8 groups with 10 mice per group. dl-, d-, and l-NBP (50 and 100 mg/kg/d), sodium Phenobarbital (225 mg/kg ip.) and the vehicle were orally administered. Thirty minutes after administration, the mice were decapitated.
The time between the decapitation and homogenation, which was 15 seconds, was regarded as cerebral ischemic time. Centrifugation and isolation were conducted by the method of Folbergrova, and the contents of lactic acid, ATP and PCr were determined by enzymological method.

normal rats = type: in vivo, Male wistar rats; conditions: 15 and 30 mg/kg oral; 30 minutes after administration
Method: Experimental Animals: Male wistar rats.
Experimental Equipments: SXP operating microscope, 62TZ-V model high frequency electrotome, solid positioner, Diamond Electro-Tech chemical microsensor 1231, two channel physiological parameter recorder.
Experimental Methods: • (1) dl-, d-, and l-NBP (15 and 30 mg/kg) and the vehicle were orally administered to the normal rats, and the changes of cerebral blood flow at different time after the administration were measured. • (2) ligation of cerebral artery was conducted on rats according to the method of Tamura. Oral administration was performed at 10 min after the operation. The rats were divided into 9 groups, which were normal group, pseudo-operation group, vehicle control group, and groups of dl-, d-, and l-NBP (15 and 30 mg/kg).

[6] = test system: permanent cerebral ischemic rats; assay: Behavioral disorder and cerebral infarct area in permanent cerebral ischemic rats (FeCl3 on middle cerebral artery); type: in vivo, Wistar rats
Method: Experimental Animal: The same as Example 1. Experimental Equipments: COOLPIX955 digital camera, 722 grating spectroscope, XHF-1 high-speed disperser, YKH-II liquid high-speed mixer, WZ-50C2 micro infusion pump. Experimental Methods: Wistar rats were anesthetized by intraperitoneally injecting 12% chloral hydrate in 350 mg/kg, and fixed in lateral decubitus position. The skin at the midpoint on the line from exterior auditory canal to canthus was cut. The muscle was separated layer by layer to expose zygomatic arch and the squamous part of temporal bone. The zygomatic arch was scissored and then placed under an operating microscope. A window of 2 mm diameter was drilled by using a dentistry drill at a position of 2 mm under the anterior joint between zygomatic arch and the squamous part of temporal bone, so as to expose the middle cerebral artery. A little piece of filter paper was applied onto the middle artery, and 10 μl of 50% FeCl3 aqueous solution was dripped onto the filter paper. The filter paper was removed after 30 min, and washed with physiological brine. Two to three drops of penicillin (1.6×10^5 U/mL) were added so as to prevent infection of the cut. Then the cut was sutured layer by layer.

[7] = test system: cerebral ischemia-reperfusion rats; assay: Behavioral disorder and cerebral infarct area in cerebral ischemia-reperfusion rats (MCAO by nylon suture, 1.5 h); type: in vivo, male Wistar rats
From the text: Experimental Animal: The same as Example 1
Experimental Equipments: The same as Example 7
Experimental Methods: The rats were anesthetized, and fixed in lateral decubitus position. Under the operating microscope, a midline neck skin incision was made to expose the left common cartotid artery. The surrounding nerves and fascia from the bifurcation of common carotid artery to the vascular of basis cranii were removed.
The internal carotid artery was then separated and carefully separated free from vagus nerve. Pterygopalatine artery was ligated at the root of the internal carotid artery. A 6# needle for injection containing 3# nylon suture (diameter of 0.285 mm) was punctured into the free end of the external carotid artery, advancing the nylon suture into the blood vascular. The needle was carefully withdrawn, and the nylon suture was guided into the internal carotid artery from the distal end of the external carotid artery up till to Willis ring, so as to effectively block the middle cerebral artery.
Depending on the body weight, the distance from the inserted nylon suture to the bifurcation of common carotid artery was 18 to 20 mm. The free end of the external carotid artery and the nylon suture therein were ligated together, in order to prevent bleeding. The muscle and the skin were then sutured layer by layer, and penicillin was dropped to prevent infection. To effectively block the middle cerebral artery, the tip of the nylon suture was made round by burning with the flame, and coated with 0.1% of poly-L-lysine. The nylon suture was baked in a 60° C. oven for 1 hour.
Due to the ability of poly-L-lysine to binding the cell and the protein to the plastic surface, and thus allow the negative charged nylon suture changing into a positive charged one and attract the anion ionic part of the endothelial cell, the nylon suture was closely bond to the endothelial surface, so as to prevent the leakage of the blood from the surrounding of the suture. Only the internal carotoid artery was separated from the animals of pseudo-operation group.
At 1.5 hours after the initiation of MCAO, the nylon suture within the lumen of the internal carotoid artery was carefully withdrawn, and the internal carotoid artery was allowed to reperfusion. The rats were then placed back into the cage.

[8] = 24 hours after intravenous injection

SMILES: CCCC[C@H]1OC(=O)c2ccccc21 [d-NBP, dextro-butylphthalide]
- neural symptoms (behavioral changes scored) [1]: no significant effect
- times of active avoidance [2]: not observed
- content of K+ in the brain [3]: no significant effect
- content of Na+ in the brain [3]: no significant effect
- content of water in the brain [3]: no significant effect
- preventive and therapeutic effect on cerebral apoplexy (overall) [4]: not significant
- content of ATP in the brain [5]: no such significant effect
- content of PCr in the brain [5]: no such significant effect
- content of lactic acid in the brain [5]: no such significant effect
- cerebral blood flow rate in normal rats (normal rats): no such effects
- cerebral infarct area (effect in words) ([6]; 2.5 mg/kg, tendency of reducing): not significant
- reduction of cerebral infarct area ([6]; first of three doses, vs model control group): 27.2%
- decrease of neurological deficit scores ([6]; high dose, i.v., 24 hours after administration): 28.1%
- ED30 (neurological deficit scores) ([6]; i.v., 24 hours after administration): 12.4 mg/kg
- neurological deficit scores (effect in words) ([6]; intravenous injection, vs model control group): improvement
- decrease of neurological deficit scores ([6]; low dose, i.v., 24 hours after administration): 17.2%
- decrease of neurological deficit scores ([6]; moderate dose, i.v., 24 hours after administration): 21.9%
- reduction of cerebral infarct area ([6]; second of three doses, vs model control group): 32.7%
- reduction of cerebral infarct area ([6]; third of three doses, vs model control group): 39.9%
- ED40 (cerebral infarct area) ([6]; vs model control group): 10.3 mg/kg
- neurological deficit scores (effect in words) [7, 8]: improvement
- potency on neurological deficit scores compared among l, dl and d-NBP [7, 8]: no significant difference
- cerebral infarct area (effect in words) ([7]; intravenous administration, effect increases with dose): significantly reduce

SMILES: CCC1(c2ccccc2)C(=O)NC(=O)NC1=O [sodium Phenobarbital]
- content of ATP in the brain [5]: increased
- content of PCr in the brain [5]: increased
- content of lactic acid in the brain [5]: significantly decreased
